In patent US20250171438A1 (Agios Pharmaceuticals, Inc., priority 2022, published 2025):

target: T1, human PAH with the R408W mutation (Homo sapiens, UniProt P00439, R408W); assay: Cell Based Phenylalanine Flux Assay; conditions: A375 cells expressing human R408W PAH; 24 hrs compound incubation; 13C-Tyrosine by LC-MS; average where tested multiple times; read-out: AC50
T1 construct: expressed in transfected cells
T1 sequence (P00439 1-452 R408W): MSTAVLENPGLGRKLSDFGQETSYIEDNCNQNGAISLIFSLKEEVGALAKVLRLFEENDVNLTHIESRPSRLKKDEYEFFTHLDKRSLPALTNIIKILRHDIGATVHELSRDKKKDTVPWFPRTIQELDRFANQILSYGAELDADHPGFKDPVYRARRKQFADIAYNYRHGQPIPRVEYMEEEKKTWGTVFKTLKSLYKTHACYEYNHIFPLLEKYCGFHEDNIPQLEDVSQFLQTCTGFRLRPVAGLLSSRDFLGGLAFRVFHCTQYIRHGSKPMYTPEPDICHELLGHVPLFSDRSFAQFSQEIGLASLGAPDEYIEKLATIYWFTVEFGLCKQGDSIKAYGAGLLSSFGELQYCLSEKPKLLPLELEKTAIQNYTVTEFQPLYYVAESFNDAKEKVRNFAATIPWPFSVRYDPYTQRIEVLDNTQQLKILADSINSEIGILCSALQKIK

SMILES | AC50 [nM]
O=C(c1oc(-c2ccccn2)nc1C1CC1)N1CCc2[nH]cnc2[C@@H]1c1nc2cccc(F)c2s1 [Example 1557, (R)-(4-cyclopropyl-2-(pyridin-2-yl)oxazol-5-yl)(4-(7-fluorobenzo[d]thiazol-2-yl)-6,7-dihydro-1H-imidazo[4,5-c]pyridin-5(4H)-yl)methanone] | 500 to 1000
O=C(c1cc(C(F)(F)F)n[nH]1)N1CCc2[nH]cnc2[C@H]1c1nc2c(F)cccc2s1 [Example 1816, (S)-(4-(4-fluorobenzo[d]thiazol-2-yl)-6,7-dihydro-1H-imidazo[4,5-c]pyridin-5(4H)-yl)(3-(trifluoromethyl)-1H-pyrazol-5-yl)methanone] | 1000 to 5000
COCCc1ccc2c(C(=O)N3CCc4[nH]cnc4[C@H]3c3nc4ccccc4s3)c(C#N)nn2c1 [Example 1867, (S)-3-(4-(benzo[d]thiazol-2-yl)-4,5,6,7-tetrahydro-1H-imidazo[4,5-c]pyridine-5-carbonyl)-6-(2-methoxyethyl)pyrazolo[1,5-a]pyridine-2-carbonitrile] | < 500
O=C(c1oc(N2CCOCC2)nc1C(F)F)N1CCc2[nH]cnc2[C@@H]1c1nc2c(F)cccc2s1 [Example 2026, (R)-(4-(difluoromethyl)-2-morpholinooxazol-5-yl)(4-(4-fluorobenzo[d]thiazol-2-yl)-6,7-dihydro-1H-imidazo[4,5-c]pyridin-5(4H)-yl)methanone] | 1000 to 5000
Cn1nc(Br)nc1C(=O)N1CCc2[nH]cnc2[C@@H]1c1nc2ccccc2s1 [Example 1978, (R)-(4-(benzo[d]thiazol-2-yl)-6,7-dihydro-1H-imidazo[4,5-c]pyridin-5(4H)-yl)(3-bromo-1-methyl-1H-1,2,4-triazol-5-yl)methanone] | 1000 to 5000
O=C(c1cnn(CC(F)(F)F)c1Cl)N1CCc2[nH]cnc2[C@@H]1c1nc2c(F)cccc2s1 [Example 1968, (R)-(5-chloro-1-(2,2,2-trifluoroethyl)-1H-pyrazol-4-yl)(4-(4-fluorobenzo[d]thiazol-2-yl)-6,7-dihydro-1H-imidazo[4,5-c]pyridin-5(4H)-yl)methanone] | 1000 to 5000
O=C(c1oc(NC2CC2)nc1C(F)F)N1CCc2[nH]cnc2[C@@H]1c1nc2ccccc2s1 [Example 1716, (R)-(4-(benzo[d]thiazol-2-yl)-6,7-dihydro-1H-imidazo[4,5-c]pyridin-5(4H)-yl)(2-(cyclopropylamino)-4-(difluoromethyl)oxazol-5-yl)methanone] | 1000 to 5000
O=C(c1nnc(-c2ncccc2F)o1)N1CCc2[nH]cnc2[C@H]1c1nc2ccccc2s1 [Example 1710] | 1000 to 5000
Cc1c(-c2ncc(C(=O)N3CCc4[nH]cnc4[C@@H]3c3nc4ccccc4s3)o2)cnn1C [Example 1384, (R)-(4-(benzo[d]thiazol-2-yl)-6,7-dihydro-1H-imidazo[4,5-c]pyridin-5(4H)-yl)(2-(1,5-dimethyl-1H-pyrazol-4-yl)oxazol-5-yl)methanone] | 1000 to 5000
O=C(c1ccon1)N1CCc2[nH]cnc2[C@H]1c1nc2ccc(Cl)cc2[nH]1 [Example 969, (S)-(4-(6-chloro-1H-benzo[d]imidazol-2-yl)-6,7-dihydro-1H-imidazo[4,5-c]pyridin-5(4H)-yl)(isoxazol-3-yl)methanone] | 500 to 1000
O=C(c1ocnc1C(F)(F)F)N1CC2(CC2)c2[nH]cnc2[C@@H]1c1nc2ccccc2s1 [Example 1667, (R)-(4′-(benzo[d]thiazol-2-yl)spiro[cyclopropane-1,7′-imidazo[4,5-c]pyridin]-5′(1′H,4′H,6′H)-yl)(4-(trifluoromethyl)oxazol-5-yl)methanone] | 1000 to 5000
O=C(c1cnn2ccccc12)N1CCc2[nH]cnc2[C@@H]1c1nc2cccc(Cl)c2[nH]1 [Example 985, (R)-(4-(7-chloro-1H-benzo[d]imidazol-2-yl)-6,7-dihydro-1H-imidazo[4,5-c]pyridin-5(4H)-yl)(pyrazolo[1,5-a]pyridin-3-yl)methanone] | > 5000
O=C(c1oc(-c2ccccn2)nc1C1CC1)N1CCc2[nH]cnc2[C@@H]1c1nc2c(F)cccc2s1 [Example 1536, (R)-(4-cyclopropyl-2-(pyridin-2-yl)oxazol-5-yl)(4-(4-fluorobenzo[d]thiazol-2-yl)-6,7-dihydro-1H-imidazo[4,5-c]pyridin-5(4H)-yl)methanone] | 1000 to 5000
O=C(CCC1CCCC1)N1CCc2[nH]cnc2[C@H]1c1nc2ccccc2[nH]1 [Example 913, (S)-1-(4-(1H-benzo[d]imidazol-2-yl)-6,7-dihydro-1H-imidazo[4,5-c]pyridin-5(4H)-yl)-3-cyclopentylpropan-1-one] | 500 to 1000
CC(C)(O)c1nc(C(F)F)c(C(=O)N2CCc3[nH]cnc3[C@@H]2c2nc3c(F)cccc3s2)o1 [Example 1774, (R)-(4-(difluoromethyl)-2-(2-hydroxypropan-2-yl)oxazol-5-yl)(4-(4-fluorobenzo[d]thiazol-2-yl)-6,7-dihydro-1H-imidazo[4,5-c]pyridin-5(4H)-yl)methanone] | 1000 to 5000
C[C@H](O)c1nc(C(F)F)c(C(=O)N2CCc3[nH]cnc3[C@@H]2c2nc3c(C(F)(F)F)cccc3s2)o1 [Example 2114, (4-(difluoromethyl)-2-((S)-1-hydroxyethyl)oxazol-5-yl)((R)-4-(4-(trifluoromethyl)benzo[d]thiazol-2-yl)-6,7-dihydro-1H-imidazo[4,5-c]pyridin-5(4H)-yl)methanone] | 500 to 1000
O=C(c1ccnn1C(F)(F)F)N1CCc2[nH]cnc2[C@H]1c1nc2c(F)cccc2s1 [Example 2099, (S)-(4-(4-fluorobenzo[d]thiazol-2-yl)-6,7-dihydro-1H-imidazo[4,5-c]pyridin-5(4H)-yl)(1-(trifluoromethyl)-1H-pyrazol-5-yl)methanone] | < 500
O=C(c1oc(C2CC(F)(F)C2)nc1C(F)F)N1CCc2[nH]cnc2[C@H]1c1nc2ccccc2s1 [Example 1786] | < 500
CC(C)(O)c1cccc2c(C(=O)N3CCc4[nH]cnc4[C@@H]3c3nc4ccccc4s3)cnn12 [Example 1482, (R)-(4-(benzo[d]thiazol-2-yl)-6,7-dihydro-1H-imidazo[4,5-c]pyridin-5(4H)-yl)(7-(2-hydroxypropan-2-yl)pyrazolo[1,5-a]pyridin-3-yl)methanone] | 1000 to 5000
Cc1cnc(C(=O)N2CCc3[nH]cnc3[C@@H]2c2nc3ccccc3s2)s1 [Example 1056, (R)-(4-(benzo[d]thiazol-2-yl)-6,7-dihydro-1H-imidazo[4,5-c]pyridin-5(4H)-yl)(5-methylthiazol-2-yl)methanone] | > 5000
O=C(CC1CC1)N1CCc2[nH]cnc2[C@H]1c1nc2ccccc2[nH]1 [Example 931, (S)-1-(4-(1H-benzo[d]imidazol-2-yl)-6,7-dihydro-1H-imidazo[4,5-c]pyridin-5(4H)-yl)-2-cyclopropylethanone] | < 500
N#Cc1ncoc1C(=O)N1CCc2[nH]cnc2[C@@H]1c1nc2c(F)cccc2s1 [Example 1662, (R)-5-(4-(4-fluorobenzo[d]thiazol-2-yl)-4,5,6,7-tetrahydro-1H-imidazo[4,5-c]pyridine-5-carbonyl)oxazole-4-carbonitrile] | 1000 to 5000
O=C(c1cnn2cc(F)ccc12)N1CCc2[nH]cnc2[C@H]1c1nc2ccc(Br)cc2[nH]1 [Example 967, (S)-(4-(6-bromo-1H-benzo[d]imidazol-2-yl)-6,7-dihydro-1H-imidazo[4,5-c]pyridin-5(4H)-yl)(6-fluoropyrazolo[1,5-a]pyridin-3-yl)methanone] | 500 to 1000
CC(C)(O)c1nc(Br)c(C(=O)N2CCc3[nH]cnc3[C@H]2c2nc3c(F)cccc3s2)s1 [Example 2093, (S)-(4-bromo-2-(2-hydroxypropan-2-yl)thiazol-5-yl)(4-(4-fluorobenzo[d]thiazol-2-yl)-6,7-dihydro-1H-imidazo[4,5-c]pyridin-5(4H)-yl)methanone] | < 500
O=C(c1nnc(-c2ccc(C(F)(F)F)cn2)o1)N1CCc2[nH]cnc2[C@H]1c1nc2c(F)cccc2s1 [Example 1848, (S)-(4-(4-fluorobenzo[d]thiazol-2-yl)-6,7-dihydro-1H-imidazo[4,5-c]pyridin-5(4H)-yl)(5-(5-(trifluoromethyl)pyridin-2-yl)-1,3,4-oxadiazol-2-yl)methanone] | 1000 to 5000
O=C(c1oc(CCC2CC2)nc1C(F)(F)F)N1CCCc2[nH]cnc2[C@H]1c1nc2ccccc2s1 [Example 2135, (S)-(4-(benzo[d]thiazol-2-yl)-7,8-dihydroimidazo[4,5-c]azepin-5(1H,4H,6H)-yl)(2-(2-cyclopropylethyl)-4-(trifluoromethyl)oxazol-5-yl)methanone] | < 500
O=C(C1CC1)N1CCc2[nH]cnc2[C@H]1c1nc2ccccc2s1 [Example 1073] | 1000 to 5000

same assay, conditions: A375 cells expressing human R408W PAH; 24 hrs with compound; 13C-Tyrosine by LC-MS; average where tested multiple times; read-out: AC50

SMILES | AC50 [nM]
O=C(c1nnc(CCN2CC(F)C2)o1)N1CCc2[nH]cnc2C1c1nc2ccccc2s1 (stereo not shown) [listing 1 of 2 here] | > 5000
Cc1nnc(CC(=O)N2CCc3[nH]cnc3[C@H]2c2nc3ccccc3[nH]2)o1 (single isomer, unassigned) | > 5000
O=C(Nc1ccc(F)cc1)N1CCc2[nH]cnc2C1c1nc2ccccc2s1 (stereo not shown) | > 5000
O=C(c1nccs1)N1CCc2[nH]cnc2C1c1nc2cc(F)ccc2s1 (stereo not shown) | 1000 to 5000
O=C(c1nnc(CCN2CC(F)C2)o1)N1CCc2[nH]cnc2C1c1nc2ccccc2s1 (stereo not shown) [listing 2 of 2 here] | 1000 to 5000
Cn1nc(C(F)(F)F)nc1C(=O)N1CCc2[nH]cnc2C1c1nc2ccccc2s1 (stereo not shown) | 1000 to 5000
CNCc1ccc2c(C(=O)N3CCc4[nH]cnc4C3c3nc4ccccc4s3)cnn2c1 (stereo not shown) | 1000 to 5000
